Target: human glucagon receptor (Homo sapiens (Human), UniProt P47871)
Assay: Glucagon Receptor Binding Assay (125I-glucagon SPA, CHO cell membranes)
Settings: inhibition of 125I-Glucagon binding to membranes of CHO cells expressing cloned human glucagon receptor; more active isomer
Description: Glucagon Receptor Binding Assay
A stable CHO (Chinese hamster ovary) cell line expressing cloned human glucagon receptor was maintained as described (Chicchi, et. al. J Biol Chem 272, 7765-9 (1997); Cascieri, et. al. J Biol Chem 274, 8694-7 (1999)). To determine antagonistic binding affinity of compounds, 0.001-0.003 mg of cell membranes from these cells were pre-incubated with 0.100 mg WGA-coated PVT SPA beads (Amersham) for 20 minutes at room temperature in 25 μL of a buffer containing 50 mM Tris-HCl (pH 7.5), 5 mM MgCl2, 2 mM EDTA, 0.1% BSA and 3% glycerol in Costar 384 well plates with clear bottoms (#3706). Next, 25 μL of ^125I-Glucagon (New England Nuclear, MA) (1×10^−14 mol per well) and either 1 μL solutions of test compounds or 0.001 mM unlabeled glucagon or DMSO were added and mixed. After 4-12 hours incubation at room temperature, the radioactivity bound to the cell membranes was determined in a radioactive emission detection counter (Wallac-Microbeta). Data were analyzed using the Data Analyzer software program of Merck & Co., Inc. The IC50 values were calculated using non-linear regression analysis assuming single-site competition.

Chain of human glucagon receptor (P47871 26-477): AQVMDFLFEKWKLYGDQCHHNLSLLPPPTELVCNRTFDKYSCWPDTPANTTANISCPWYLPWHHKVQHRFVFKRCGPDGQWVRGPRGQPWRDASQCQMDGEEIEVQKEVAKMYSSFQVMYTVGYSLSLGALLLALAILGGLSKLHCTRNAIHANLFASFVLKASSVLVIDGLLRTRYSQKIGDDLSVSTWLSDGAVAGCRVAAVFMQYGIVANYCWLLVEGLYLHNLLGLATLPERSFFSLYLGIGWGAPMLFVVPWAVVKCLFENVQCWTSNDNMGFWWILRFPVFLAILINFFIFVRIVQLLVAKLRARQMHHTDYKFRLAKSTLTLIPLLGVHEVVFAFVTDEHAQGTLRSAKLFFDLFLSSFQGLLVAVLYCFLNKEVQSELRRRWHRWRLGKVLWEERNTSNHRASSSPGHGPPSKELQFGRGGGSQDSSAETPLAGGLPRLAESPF

Row | IC50 [nM] | Compound
1 | 6.2 | CCC[C@H](c1ccc(C(=O)NCCC(=O)O)cc1)C(c1ccc(Cl)cc1)c1csc2c(C#N)cc(Cl)cc12 (stereo partly drawn) [Example 1, N-(4-{(1S)-1-[(5-CHLORO-7-CYANO-1-BENZOTHIEN-3-YL)(4-CHLOROPHENYL)METHYL]BUTYL}BENZOYL)-β-ALANINE]
2 | 4.7 | CCCC[C@H](c1ccc(C(=O)NCCC(=O)O)cc1)C(c1ccc(Cl)cc1)c1csc2c(-c3ccnn3C)cc(F)cc12 (stereo partly drawn) [Example 2, N-[4-((1S)-1-{(4-CHLOROPHENYL)[5-FLUORO-7-(1-METHYL-1H-PYRAZOL-5-YL)-1-BENZOTHIEN-3-YL]METHYL}PENTYL)BENZOYL]-β-ALANINE]
3 | 2.3 | CCC[C@H](c1ccc(C(=O)Nc2nnn[nH]2)cc1)C(c1ccc(Cl)cc1)c1csc2c(Br)cc(C)cc12 (stereo partly drawn) [Example 3, 4-{(1S)-1-[(7-BROMO-5-METHYL-1-BENZOTHIEN-3-YL)(4-CHLOROPHENYL)METHYL]BUTYL}-N-1H-TETRAZOL-5-YLBENZAMIDE]
4 | 2.5 | CCC[C@H](c1ccc(C(=O)NCc2nn[nH]n2)cc1)C(c1ccc(Cl)cc1)c1csc2c(Br)cc(C)cc12 (stereo partly drawn) [Example 4, 4-{(1S)-1-[(7-BROMO-5-METHYL-1-BENZOTHIEN-3-YL)(4-CHLOROPHENYL)METHYL]BUTYL}-N-(2H-TETRAZOL-5-YLMETHYL)BENZAMIDE]
5 | 28 | CCC[C@H](c1ccc(C(=O)NCCC(=O)O)cc1)C(c1ccc(Cl)cc1)c1csc2c(C)cc(Cl)cc12 (stereo partly drawn) [Example 6, N-(4-{(1S)-1-[(5-CHLORO-7-METHYL-1-BENZOTHIEN-3-YL)(4-CHLOROPHENYL)METHYL]BUTYL}BENZOYL)-β-ALANINE]
6 | 2.2 | CCC[C@H](c1ccc(C(=O)NCCC(=O)O)cc1)C(c1ccc(Cl)cc1)c1c(C)sc2ccccc12 (stereo partly drawn) [Example 8, N-(4-{(1S)-1-[(2-METHYL-1-BENZOTHIEN-3-YL)(4-CHLOROPHENYL)METHYL]BUTYL}BENZOYL)-β-ALANINE]
7 | 1.1 | CCC[C@H](c1ccc(C(=O)NCCC(=O)O)cc1)C(c1ccc(Cl)cc1)c1csc2c(C#N)cc(F)cc12 (stereo partly drawn) [Example 13, N-(4-{(1S)-1-[(5-FLUORO-7-CYANO-1-BENZOTHIEN-3-YL)(4-CHLOROPHENYL)METHYL]BUTYL}BENZOYL)-β-ALANINE]
8 | 1.3 | CCC[C@H](c1ccc(C(=O)NCCC(=O)O)cc1)C(c1ccc(Cl)cc1)c1csc2c(C#N)cc(C)cc12 (stereo partly drawn) [Example 14, N-(4-{(1S)-1-[(5-METHYL-7-CYANO-1-BENZOTHIEN-3-YL)(4-CHLOROPHENYL)METHYL]BUTYL}BENZOYL)-β-ALANINE]
9 | 1.7 | CCC[C@H](c1ccc(C(=O)NCCC(=O)O)cc1)C(c1ccc(Cl)cc1)c1csc2c(C#N)cc(C(F)(F)F)cc12 (stereo partly drawn) [Example 15, N-(4-{(1S)-1-[(5-TRIFLUOROMETHYL-7-CYANO-1-BENZOTHIEN-3-YL)(4-CHLOROPHENYL)METHYL]BUTYL}BENZOYL)-β-ALANINE]
10 | 7.8 | CCC[C@H](c1ccc(C(=O)NCCC(=O)O)cc1)C(c1ccc(Cl)cc1)c1c(C)sc2c(C#N)cc(Cl)cc12 (stereo partly drawn) [Example 19, N-(4-{(1S)-1-[(2-METHYL-5-CHLORO-7-CYANO-1-BENZOTHIEN-3-YL)(4-CHLOROPHENYL)METHYL]BUTYL}BENZOYL)-β-ALANINE]
11 | 0.7 | CCC[C@H](c1ccc(C(=O)NCCC(=O)O)cc1)C(c1ccc(Cl)c(Cl)c1)c1csc2c(C#N)cc(Cl)cc12 (stereo partly drawn) [Example 21, N-(4-{(1S)-1-[(5-CHLORO-7-CYANO-1-BENZOTHIEN-3-YL)(3,4-DICHLOROPHENYL)METHYL]BUTYL}BENZOYL)-β-ALANINE]
12 | 0.2 | CCC[C@H](c1ccc(C(=O)NCCC(=O)O)cc1)C(c1ccc(OC(F)(F)F)cc1)c1csc2c(C#N)cc(C)cc12 (stereo partly drawn) [Example 23, N-(4-{(1S)-1-[(5-METHYL-7-CYANO-1-BENZOTHIEN-3-YL)(4-TRIFLUOROMETHOXYPHENYL)METHYL]BUTYL}BENZOYL)-β-ALANINE]
13 | 0.1 | CCC[C@H](c1ccc(C(=O)NCCC(=O)O)cc1)C(c1ccc(OC(F)(F)F)cc1)c1csc2c(C#N)cc(Cl)cc12 (stereo partly drawn) [Example 25, N-(4-{(1S)-1-[(5-CHLORO-7-CYANO-1-BENZOTHIEN-3-YL)(4-TRIFLUOROMETHOXYPHENYL)METHYL]BUTYL}BENZOYL)-β-ALANINE]
14 | 0.2 | N#Cc1cc(Cl)cc2c(C(c3ccc(Cl)cc3)[C@H](CCC(F)(F)F)c3ccc(C(=O)NCCC(=O)O)cc3)csc12 (stereo partly drawn) [Example 27, N-(4-{(1S)-1-[(5-CHLORO-7-CYANO-1-BENZOTHIEN-3-YL)(4-CHLOROPHENYL)METHYL]-4,4,4-TRIFLUOROBUTYL}BENZOYL)-β-ALANINE]
15 | 0.4 | CCCC[C@H](c1ccc(C(=O)NCCC(=O)O)cc1)C(c1ccc(Cl)cc1)c1csc2c(C#N)cc(Cl)cc12 (stereo partly drawn) [Example 29, N-(4-{(1S)-1-[(5-CHLORO-7-CYANO-1-BENZOTHIEN-3-YL)(4-CHLOROPHENYL)METHYL]PENTYL}BENZOYL)-β-ALANINE]
16 | 1 | CCCC[C@H](c1ccc(C(=O)NCCC(=O)O)cc1)C(c1ccc(Cl)cc1)c1csc2c(C#N)cc(Cl)cc12 (stereo partly drawn) [Example 32, N-(4-{(1S)-1-[(5-CHLORO-7-CYANO-1-BENZOTHIEN-3-YL)(4-CHLOROPHENYL)METHYL]-4-METHYLBUTYL}BENZOYL)-β-ALANINE]
17 | 11.8 | CCC[C@H](c1ccc(C(=O)NCC(F)(F)C(=O)O)cc1)C(c1ccc(Cl)cc1)c1csc2c(Br)cc(C)cc12 (stereo partly drawn) [Example 40, 3-[(4-{(1S)-1-[(5-METHYL-7-BROMO-1-BENZOTHIOPHEN-3-YL)(4-CHLOROPHENYL)METHYL]BUTYL}BENZOYL)AMINO]-2,2-DIFLUOROPROPANOIC ACID]
18 | 3.4 | CCC[C@H](c1ccc(C(=O)NCCS(=O)(=O)O)cc1)C(c1ccc(Cl)cc1)c1csc2c(Br)cc(C)cc12 (stereo partly drawn) [Example 43, 2-[(4-{(1S)-1-[(5-METHYL-7-BROMO-1-BENZOTHIOPHEN-3-YL)(4-CHLOROPHENYL)METHYL]BUTYL}BENZOYL)AMINO]ETHANE SULFONIC ACID]
19 | 1.8 | CCC[C@H](c1ccc(C(=O)NCCC(=O)O)cc1)C(c1ccc(Cl)cc1)c1sc2ccccc2c1C (stereo partly drawn) [Example 45, N-[4-((1S)-1-{(4-CHLOROPHENYL)[3-METHYL-1-BENZOTHIEN-2-YL]METHYL}BUTYL)BENZOYL]-β-ALANINE]

Reference: patent publication US9359339B2, “Glucagon receptor antagonist compounds, compositions containing such compounds and methods of use” (Merck Sharp & Dohme Corp., priority 2009, dated 2016)
